Experimental data as given in publication PMC9618804, “CXCR1 and its downstream NF-κB inflammation signaling pathway as a key target of Guanxinning injection for myocardial ischemia/reperfusion injury” (Frontiers in Immunology, 2022).

Assays:
mCXCR1 = molecular target: T1, mCXCR1 (Mus musculus, UniProt Q810W6); test: CETSA and isothermal dose-response (ITDRF-CETSA) in cell lysate, Western blot; format: biochemical; conditions: HL-1 lysate; 20 uM DSS, 30 min at room temperature, 3 min at 37-73 C; ITDRF 0-20 uM at 61 C
T1 construct: gene Cxcr1; native full-length receptor in freeze-thaw lysate supernatant of mouse HL-1 cardiomyocytes; detected by Western blot (anti-CXCR1 bs-1009R)
T1 sequence (Q810W6 1-351): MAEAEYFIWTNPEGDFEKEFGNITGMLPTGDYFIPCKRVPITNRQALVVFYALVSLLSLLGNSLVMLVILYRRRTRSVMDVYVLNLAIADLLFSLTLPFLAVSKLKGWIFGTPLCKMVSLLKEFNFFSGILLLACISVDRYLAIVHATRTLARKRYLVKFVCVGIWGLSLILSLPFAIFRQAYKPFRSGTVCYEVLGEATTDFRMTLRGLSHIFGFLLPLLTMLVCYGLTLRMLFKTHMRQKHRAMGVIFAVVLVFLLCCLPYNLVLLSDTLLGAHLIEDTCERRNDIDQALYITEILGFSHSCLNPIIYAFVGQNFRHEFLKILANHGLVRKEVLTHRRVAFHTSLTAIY

hCXCR1 = molecular target: T2, hCXCR1 (Homo sapiens, UniProt P25024); test: CETSA in cell lysate, Western blot; format: biochemical; conditions: AC-16 lysate; 20 uM DSS, 30 min at room temperature, 3 min at 37-73 C
T2 construct: gene CXCR1; native full-length receptor in freeze-thaw lysate supernatant of human AC-16 cardiomyocytes; detected by Western blot
T2 sequence (P25024 1-350): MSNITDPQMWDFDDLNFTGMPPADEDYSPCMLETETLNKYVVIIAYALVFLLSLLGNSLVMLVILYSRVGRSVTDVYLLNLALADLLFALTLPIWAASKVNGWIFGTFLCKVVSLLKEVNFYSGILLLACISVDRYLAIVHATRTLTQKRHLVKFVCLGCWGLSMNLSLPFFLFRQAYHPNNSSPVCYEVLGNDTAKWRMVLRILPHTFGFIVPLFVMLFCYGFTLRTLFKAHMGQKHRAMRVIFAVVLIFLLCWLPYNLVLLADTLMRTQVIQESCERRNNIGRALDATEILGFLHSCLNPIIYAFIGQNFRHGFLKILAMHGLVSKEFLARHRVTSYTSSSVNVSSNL

## O=C(O)[C@H](O)Cc1ccc(O)c(O)c1 [DSS, Danshensu]
mCXCR1
  thermal stabilization (CETSA): this thermal stabilization between Danshensu and mCXCR1 was dose dependent from ITDRFCETSA
hCXCR1
  thermal stabilization (CETSA): DSS also binds to hCXCR1 to increase its thermal stability
